These are literature values, as cited in patent US20230243817A1, “USES, METHODS AND PRODUCTS RELATING TO OLIGOMERIC LIPOPOLYSACCHARIDE BINDING PROTEINS” (priority 2020, published 2023).

For this data set the following is noted: for Kd: read-out: KD for LPS.

What is called Kd is the constant that tells how readily two partners part at equilibrium. For MD-2: human LPS immune receptor, the Kd is 2.33 µM.
On to polymyxin B [reference compound], for which the Kd is 48 µM. For the same molecule, the Reported binding affinity entry (depending on the bacterial strain) is given as “micromolar range”.
As to TLR4: human LPS immune receptor, the Kd is 141 µM.

B1: LPS binding protein: human LPS immune receptor (protein, UniProt P18428 26-481, looked up)
Lipopolysaccharide-binding …: ANPGLVARITDKGLQYAAQEGLLALQSELLRITLPDFTGDLRIPHVGRGRYEFHSLNIHSCELLHSALRPVPGQGLSLSISDSSIRVQGRWKVRKSFFKLQGSFDVSVKGISISVNLLLGSESSGRPTVTASSCSSDIADVEVDMSGDLGWLLNLFHNQIESKFQKVLESRICEMIQKSVSSDLQPYLQTLPVTTEIDSFADIDYSLVEAPRATAQMLEVMFKGEIFHRNHRSPVTLLAAVMSLPEEHNKMVYFAISDYVFNTASLVYHEEGYLNFSITDDMIPPDSNIRLTTKSFRPFVPRLARLYPNMNLELQGSVPSAPLLNFSPGNLSVDPYMEIDAFVLLPSSSKEPVFRLSVATNVSATLTFNTSKITGFLKPGKVKVELKESKVGLFNAELLEALLNYYILNTFYPKFNDKLAEGFPLPLLKRVQLYDLGLQIHKDFLFLGANVQYMRV
As for B1, the Kd was 0.0035 µM.
